Laboratory results: patent US6479505B1, “6-arylphenanthridines with PDE-IV inhibiting activity” (Altana Pharma AG, priority 1999, dated 2002)

Test system: PDE4
Assay: Inhibition of PDE4 activity (method of Bauer and Schwabe, microtiter plates)
Assay type: biochemical
Conditions: inhibitory concentration as −log IC50 (mol/l)
Procedure: The activity test was carried out according to the method of Bauer and Schwabe, which was adapted to microtiter plates (Naunyn-Schmiedeberg's Arch. Pharmacol. 1980, 311, 193-198). The PDE reaction takes place in the first step here. In a second step, the resulting 5′-nucleotide is cleaved by a 5′-nucloetidase of the snake venom of Crotalus atrox to the uncharged nucleoside. In the third step, the nucleoside is separated from the remaining charged substrate on ion-exchange columns. The columns are eluted directly into minivials, into which 2 ml of scintillator fluid are additionally added, for counting using 2 ml of 30 mM ammonium formate (pH 6.0).
The inhibitory values determined for the compounds according to the invention [inhibitory concentration as −log IC50 (mol/l/)] follow from the following Table A, in which the numbers of the compounds correspond to the numbers of the examples.

**Q.** With `COc1cc2c(cc1OC)[C@@H]1CCCC[C@@H]1N=C2c1ccc2c(c1)OCO2` [Compound 1, (−)-cis-6-Benzo[1,3]dioxol-5-yl-8,9-dimethoxy-1,2,3,4,4a,10b-hexahydrophenanthridine] as the compound, how does the “−log IC50” value read?
**A.** 7.28

**Q.** Which “−log IC50” value does the source give for `COc1cc2c(cc1OC)[C@@H]1CCCC[C@@H]1N=C2c1ccc2ncccc2c1` [Compound 2, (−)-cis-8,9-Dimethoxy-6-quinolin-6-yl-1,2,3,4,4a,10b-hexahydrophenanthridine] here?
**A.** 7.23

**Q.** For `COc1cc2c(cc1OC)[C@@H]1CCCC[C@@H]1N=C2c1ccc2c(c1)OCCO2` [Compound 3, (−)-cis-8,9-Dimethoxy-6-(2,3-dihydrobenzo[1,4]dioxin-6-yl)-1,2,3,4,4a,10b-hexahydrophenanthridine], which “−log IC50” value is on record?
**A.** 7.21

**Q.** For `COc1cc2c(cc1OC)[C@@H]1CCCC[C@@H]1N=C2c1ccc2[nH]nnc2c1` [Compound 4, (−)-cis-6-(1H-Benzotriazol-5-yl)-8,9-dimethoxy-1,2,3,4,4a,10b-hexahydrophenanthridine], which “−log IC50” value is on record?
**A.** 7.47

**Q.** For `COc1cc2c(cc1OC)[C@@H]1CCCC[C@@H]1N=C2c1ccc2ccccc2c1` [Compound 5, (−)-cis-8,9-Dimethoxy-6-naphthalen-2-yl-1,2,3,4,4a,10b-hexahydrophenanthridine], which “−log IC50” value is on record?
**A.** 7.63

**Q.** For `COc1cc2c(cc1OC)[C@@H]1CCCC[C@@H]1N=C2c1ccc2c(c1)S(=O)(=O)c1ccccc1C2=O` [Compound 6, (−)-cis-8,9-Dimethoxy-6-(10,10-dioxothioxanthen-9-on-3-yl)-1,2,3,4,4a,10b-hexahydro-phenanthridine], which “−log IC50” value is on record?
**A.** 8.39

**Q.** For `COc1cc2c(cc1OC)[C@@H]1CCCC[C@@H]1N=C2c1ccc2c(c1)C(=O)c1ccccc1-2.Cl` [Compound 7, (+)-cis-8,9-Dimethoxy-6-(fluoren-9-on-2-yl)-1,2,3,4,4a,10b-hexahydrophenanthridine hydrochloride], which “−log IC50” value is on record?
**A.** 7.85

**Q.** Which “−log IC50” value does the source give for `COc1cc2c(cc1OC)[C@@H]1CCCC[C@@H]1N=C2c1ccc2c(c1)C(=O)c1ccccc1C2=O` [Compound 8, (−)-cis-8,9-Dimethoxy-6-(anthraquinon-2-yl)-1,2,3,4,4a,10b-hexahydrophenanthridine] here?
**A.** 8.00

**Q.** For `COc1cc2c(cc1OC)[C@@H]1CCCC[C@@H]1N=C2c1ccc2[nH]cnc2c1` [Compound 9, (−)-cis-6-(1H-Benzimidazol-5-yl)-8,9-dimethoxy-1,2,3,4,4a,10b-hexahydrophenanthridine], which “−log IC50” value is on record?
**A.** 6.76

**Q.** For `COc1cc2c(cc1OC)[C@@H]1CCCC[C@@H]1N=C2c1ccc2nc(C)[nH]c2c1` [Compound 10, (−)-cis-8,9-Dimethoxy-6-(2-methyl-3H-benzimidazol-5-yl)-1,2,3,4,4a,10b-hexahydrophenanthridine], which “−log IC50” value is on record?
**A.** 6.83

**Q.** Which “−log IC50” value does the source give for `COc1cc2c(cc1OC)[C@@H]1CCCC[C@@H]1N=C2c1ccc(OC(F)F)c2oc(C(C)C)cc12` [Compound 11, (−)-cis-6-[7-Difluoromethoxy-2-isopropylbenzofuran-4-yl]-8,9-dimethoxy-1,2,3,4,4a,10b-hexahydrophenanthridine] here?
**A.** 8.00

Test system: not given
Assay: not given
Conditions: not given

**Q.** For `COc1cc2c(cc1OC)[C@@H]1CCCC[C@@H]1N=C2c1ccc2[nH]nnc2c1` [Compound 4, (−)-cis-6-(1H-Benzotriazol-5-yl)-8,9-dimethoxy-1,2,3,4,4a,10b-hexahydrophenanthridine], which melting point is on record?
**A.** 213 to 214 °C

**Q.** For `COc1cc2c(cc1OC)[C@@H]1CCCC[C@@H]1N=C2c1ccc2c(c1)C(=O)c1ccccc1C2=O` [Compound 8, (−)-cis-8,9-Dimethoxy-6-(anthraquinon-2-yl)-1,2,3,4,4a,10b-hexahydrophenanthridine], which melting point is on record?
**A.** 213 to 214.5 °C
